Publication PMC7699381, “Rare-Earth Metal Complexes of the Antibacterial Drug Oxolinic Acid: Synthesis, Characterization, DNA/Protein Binding and Cytotoxicity Studies” (Molecules, 2020)

What follows are molecules tested on MDA-MB 231 (human breast adenocarcinoma) (assay: MTS cytotoxicity assay, MDA-MB 231 cells). Details: Homo sapiens, MDA-MB-231, 48 h of incubation.
Type: cell-based
Description: (§1) For the evaluation of the cytotoxic effects of the complexes and ligand two human cancer cell lines were used, namely MDA-MB 231 (human breast adenocarcinoma) and LoVo (human colon adenocarcinoma); a normal cell line, human umbilical vein endothelial cells (HUVEC), was used as a reference. […] After 24 h and 48 h, respectively, cell viability was evaluated through MTS assay (data shown in Figures S16–S18) and the IC50 values were calculated (Table 5). The cytotoxicity assay is based on the ability of metabolically active cells to reduce MTS, a yellow tetrazolium salt, to the colored formazan, soluble in the culture medium; the concentration of formazan can be spectrophotometrically determined. […] PES is a cationic dye with high chemical stability that binds to MTS and forms a stable solution. […] The reduced MTS to formazan was spectrophotometrically measured at λ = 492 nm. The test was run on two cancer cell lines, LoVo and MDA-MB 231, and on a normal cell line, HUVEC. […] Cell viability data were obtained in triplicate (n = 3) and expressed as mean values ± standard deviations (SD). […] All assays were performed in 96-well microtiter plates with flat bottom (Falcon), using CellTiter 96 Aqueous One Solution Cell Proliferation Assay (Promega), an MTS-based colorimetric assay. The formazan was spectrophotometrically measured using the Tecan GENios Spectrophotometer.
In the case of COc1cccc2c1C(=O)c1c(O)c3c(c(O)c1C2=O)C[C@@](O)(C(=O)CO)C[C@@H]3O[C@H]1C[C@H](N)[C@H](O)[C@H](C)O1 [ADR, adriamycin, reference compound], the IC50 is reported as 7.85 ± 0.7 µM.

The molecules below were run on LoVo (human colon adenocarcinoma) (assay: MTS cytotoxicity assay, LoVo cells). Details: 48 h of incubation.
Type: cell-based
Description: as §1
Work on N.N.[Cl][Pt][Cl] [Cis-Pt, Cisplatin, reference compound] yielded an IC50 of 40.1 ± 13.9 µM.

These molecules were tested on HUVEC (normal human umbilical vein endothelial cells) (assay: MTS cytotoxicity assay, HUVEC normal cells). Details: 48 h of incubation.
Type: cell-based
Description: as §1
Molecule N.N.[Cl][Pt][Cl] [Cis-Pt, Cisplatin, reference compound] has an IC50 of 28.5 ± 6.28 µM.
